The test system of data set [1] is MDA-MB-468. Briefly: Cell proliferation assay MDA-MB-468. The format is cell-based. The note with it: Homo sapiens, Breast, 72 hours, read-out: IC50 antiproliferative activity. Here is the method:
(§1) Growth inhibition was accessed by adenosine triphosphate (ATP) content assay using Promega CellTiter-Glo kit. Promega CellTiter-Glo kit is an ATP monitoring system based on firefly luciferase. Briefly, 16 μl of mammalian cell lysis and substrate solution was added to 84 µl of culture medium per well to lyse the cells and stabilize the ATP. The mixture was shaken and incubated for 30 minutes and subsequently the luminescence was measured. IC50 values were calculated using PRISM software (GraphPad Software) with sigmoidal dose-response curve fitting.

The test system of data set [2] is HCC1806. The data set is described as follows: Cell proliferation assay HCC1806. Format: cell-based. The settings on record: Homo sapiens, Breast, 72 hours, read-out: IC50 antiproliferative activity. The procedure:
as §1

The subject of data set [3] is CFPAC-1. Briefly: Cell proliferation assay CFPAC-1. The format is cell-based. The note with it: Homo sapiens, Pancreas, 72 hours, read-out: IC50 antiproliferative activity. Here is the method: as §1
For data set [4], the system named is RPMI-8226. Briefly: Cell proliferation assay RPMI-8226. The format is cell-based. The settings on record: Homo sapiens, Multiple Myeloma, 72 hours, read-out: IC50 antiproliferative activity. The procedure:
as §1

Data set [5] concerns HCC1500. Briefly: Cell proliferation assay HCC1500. The note with it: Homo sapiens, Breast, 72 hours, read-out: IC50 antiproliferative activity. The format is cell-based. Here is the method:
as §1

For data set [6], the system named is H460. Briefly: Cell proliferation assay H460. Format: cell-based. The settings on record: Homo sapiens, NCI-H460, NSCLC, 72 hours, read-out: IC50 antiproliferative activity. Here is the method:
as §1

Data set [7] has as its system MM1R subcutaneous tumor. Briefly: MM1R xenograft model. The format is in vivo, SCID/Beige mice. The note with it: oral gavage five times per week. Here is the method: Female SCID/Beige mice at age 4 weeks were housed in ventilated micro-isolator cages (INNOCAGE®IVC, Innovive Inc., San Diego, Calif.) in a controlled climate, fed with sterile high-fat diet (Problab-RMH 2000) ad libitum and provided with sterilized water. All housing and supplies for SCID/Beige mice were sterilized by autoclaving before use. Mice were inspected daily including weekends/holidays by trained animal facility personnel and investigators. All animal procedures were performed under sterile conditions within a biosafety cabinet (for injections) or laminar flow hood (for animal husbandry and non-invasive procedures).
MM1R human MM cells were originally obtained from peripheral blood of a multiple myeloma patient (Goldman-Leikin R E, et al., J Lab Clin Invest. 1980, 13:335-345). Cryopreserved cells were thawed in a 37° C. water bath and cultured in RPMI medium plus 10% Fetal Bovine Serum (FBS) in a tissue culture incubator at 5% CO2. Cells were sent to outside vendors for contaminants and rodent pathogen screening intended to rule out contamination by mycoplasma (by PCR) and/or virus (by MAP test, Mouse Antibody Production). When the cells in culture were enough for implantation, they washed with serum free Hank's balanced salt solution (HBSS). Finally the cells were diluted in HBSS for implantation. […] The implanted mice were monitored for general health and tumor development daily.
Tumors were detectable about two weeks following implantation. Tumor size was measured with a caliper. […]
During each animal study, tumors were measured with calipers, tumor size determined using the above mentioned formula, and tumor size changes in percentage calculated. Mouse body weights were measured with a scale twice per week. […] T/C values were calculated using the following formula: % T/C=100×ΔT/ΔC if ΔT>0. […]
The treatment period was 18 days. Tumor sizes and body weights were measured again on the last day of the study.

The test system of data set [8] is MCF-7. Briefly: Cell proliferation assay MCF-7. The format is cell-based. The note with it: Homo sapiens, MCF7, Breast, 72 hours, read-out: IC50 antiproliferative activity. Here is the method: as §1
Data set [9] deals with H2122. Briefly: Cell proliferation assay H2122. The format is cell-based. The settings on record: Homo sapiens, NCI-H2122, NSCLC, 72 hours, read-out: IC50 antiproliferative activity. Here is the method: as §1
The subject of data set [10] is SW620. Briefly: Cell proliferation assay SW620. The settings on record: Homo sapiens, SW-620, Colon, 72 hours, read-out: IC50 antiproliferative activity. The format is cell-based. Here is the method:
as §1

The test system of data set [11] is ARH77. The data set is described as follows: Cell proliferation assay ARH77. Format: cell-based. The settings on record: Homo sapiens, ARH-77, Multiple Myeloma, 72 hours, read-out: IC50 antiproliferative activity. Here is the method: as §1
The subject of data set [12] is marrow lymphocyte progenitor cells. Briefly: Effect on hematopoietic cells in bone marrow. Format: in vivo, mice. The settings on record: 100 mg/kg orally for five consecutive days. An excerpt:
Bone marrow was also removed from the mice sacrificed in Example 12. Bone marrow content were collected from the mice long bones and analyzed with flow cytometer. Various markers for progenitor or mature lymphocytes were used.

The subject of data set [13] is T-84. Briefly: Cell proliferation assay T-84. The format is cell-based. The settings on record: Homo sapiens, T84, Colon, 72 hours, read-out: IC50 antiproliferative activity. The procedure: as §1

For `COc1ccc(-c2nc(N3CCOCC3)c3sc(CN(C)c4ncc(C(=O)NO)cn4)cc3n2)cn1` [Compound 1, N-hydroxy-2-(((2-(6-methoxypyridin-3-yl)-4-morpholinothieno[3,2-d]pyrimidin-6-yl)methyl)(methyl)amino)pyrimidine-5-carboxamide], the half-maximal inhibitory concentration (IC50) in data set [1] is 0.01 to 0.1 µM; in data set [2], 0.01 to 0.1 µM; in data set [3] it was 0.01 to 0.1 µM; in data set [4] it was less than 0.01 µM; in [5], less than 0.01 µM; in data set [6] it was 0.01 to 0.1 µM. For the same compound, the IC50 was less than 0.01 µM in data set [8]; less than 0.01 µM in data set [9]; less than 0.01 µM in data set [10]; less than 0.01 µM in data set [11]; 0.01 to 0.1 µM in [13]. The compound further yielded a T/C value in data set [7] (day-17, p<0.0001) of 21.15%. In addition, the “Body weight and side effects” value in data set [7] (single agent, 18 days) is reported as “No body weight loss or other side effects were observed”. Moreover, the Tumor growth entry in data set [7] (single agent, 18 days) is on record as “inhibited tumor growth”. The “Marrow lymphocyte progenitor cells” value in data set [12] is given as “induced a compensatory increase in marrow lymphocyte progenitor cells”.

Turning to `CS(=O)(=O)N1CCN(Cc2cc3nc(-c4cccc5[nH]ncc45)nc(N4CCOCC4)c3s2)CC1` [GDC-0941, reference compound], the IC50 was 0.1 to 1 µM in data set [1]; greater than 10 µM in [2]; greater than 10 µM in data set [3]; greater than 10 µM in data set [4]; greater than 10 µM in [5]; greater than 10 µM in data set [6]. In addition, the half-maximal inhibitory concentration (IC50) in data set [8] is 0.1 to 1 µM; in [9] it was 1 to 10 µM; in data set [10], greater than 10 µM; in [11], greater than 10 µM; in [13], 1 to 10 µM.

The term IC50 denotes the concentration that gives 50% inhibition.

The values are drawn from patent US11654136B2, “Phosphoinositide 3-kinase inhibitor with a zinc binding moiety” (Curis, Inc., priority 2011, dated 2023).
